Reference: paper PMC9694130, “Design, Preparation, Characterization and Evaluation of Five Cocrystal Hydrates of Fluconazole with Hydroxybenzoic Acids” (Pharmaceutics, 2022)

Assays:
[1] = cited from earlier work; for aqueous solubility of CCFs in water: water at 25 °C, no reference given
[2] = Accelerated stability test (PXRD); type: physicochemical; conditions: for stability under high temperature: high temperature (60 ± 1 °C), phase changes reported after 5 days
Experimental: Approximately 50 mg of powdered samples were stored under the three test conditions and measured at regular time intervals (0, 5, and 10 days) by PXRD.

[3] = Intrinsic dissolution rate (IDR) in ultrapure water; type: physicochemical; conditions: 37 °C; for order of intrinsic dissolution rate: ultrapure water, 100 rpm, rank among the three cocrystal hydrates
Experimental: The resulting disk has a flat surface of 0.5 cm^2. Then, the disk was dipped into a vessel containing 900 mL ultrapure water at 37 ± 0.2 °C, with the paddle rotating at 100 rpm. At time intervals (60, 75, 90, 120, 150, 180, 210, 240, 270, and 300 min), 1 mL of the dissolution medium was withdrawn manually. After filtration through a 0.45 μm syringe tip filter, the aliquots were assayed on an HPLC system. Each experiment was repeated in triplicate.
(§1) The HPLC (Agilent Technologies, Santa Clara, USA) system was equipped with a UV detector and an Agilent Eclipse XDB−C18 (250 mm × 4.6 mm, 5 μm) column with the temperature set to 30 °C. The mobile phase consisted of acetonitrile and water (25:75, v:v) with a flow rate of 1.0 mL min^−1. The injection volume was 10 μL and the detection wavelength was set to 261 nm.

[4] = Apparent powder dissolution in ultrapure water; type: physicochemical; conditions: 37 °C, 100 rpm, rank among the three cocrystal hydrates
Experimental: Sampling was conducted by withdrawing 1 mL aliquot of the sample at time intervals of 5, 10, 15, 20, 30, 45, 60, 90, and 120 min from the vessel and filtered through a 0.45 μm syringe tip filter, and the aliquots were assayed on a high-performance liquid chromatography (HPLC) system. The measurements of the powder dissolution rate were repeated in triplicate.
as §1

Row | Structure (SMILES) | aqueous solubility of CCFs in water [1] [mg/mL] | stability under high temperature ([2]; PXRD at 0, 5 and 10 days) | order of intrinsic dissolution rate [3] | order of apparent dissolution rate [4] | further results
1 | O=C(O)c1ccc(O)cc1O [24DHB, 2,4-dihydroxybenzoic acid] | 8 | – | – | – | –
2 | O=C(O)c1ccc(O)c(O)c1 [34DHB, 3,4-dihydroxybenzoic acid] | 29 | – | – | – | –
3 | O=C(O)c1cc(O)cc(O)c1 [35DHB, 3,5-dihydroxybenzoic acid] | 84 | – | – | – | –
4 | O.OC(Cn1cncn1)(Cn1cncn1)c1ccc(F)cc1F [FLZ monohydrate, reference compound] | – | converted to FLZ form II | – | – | –
5 | OC(Cn1cncn1)(Cn1cncn1)c1ccc(F)cc1F [FLZ, 2-(2,4-difluorophenyl)-1,3-di(1H-1,2,4-triazol-1-yl)propan-2-ol, reference compound] | – | – | – | – | aqueous solubility ([1]; FLZ form II): 2 to 8 mg/mL
6 | O.O.O=C(O)c1ccc(O)cc1O.OC(Cn1cncn1)(Cn1cncn1)c1ccc(F)cc1F.OC(Cn1cncn1)(Cn1cncn1)c1ccc(F)cc1F [FLZ−24DHB−H2O (1:0.5:1)] | – | converted to the physical mixture of amorphous and crystalline phases | FLZ−35DHB−H2O (1:1:1) > FLZ−34DHB−H2O (1:1:1) > FLZ−24DHB−H2O (1:0.5:1) | FLZ−35DHB−H2O (1:1:1) > FLZ−34DHB−H2O (1:1:1) > FLZ−24DHB−H2O (1:0.5:1) | –
7 | O.O.O=C(O)c1ccc(O)c(O)c1.OC(Cn1cncn1)(Cn1cncn1)c1ccc(F)cc1F.OC(Cn1cncn1)(Cn1cncn1)c1ccc(F)cc1F [FLZ−34DHB−H2O (1:0.5:1)] | – | converted to the physical mixture of amorphous and crystalline phases | – | – | –
8 | O.O=C(O)c1ccc(O)c(O)c1.OC(Cn1cncn1)(Cn1cncn1)c1ccc(F)cc1F [FLZ−34DHB−H2O (1:1:1)] | – | stable | FLZ−35DHB−H2O (1:1:1) > FLZ−34DHB−H2O (1:1:1) > FLZ−24DHB−H2O (1:0.5:1) | FLZ−35DHB−H2O (1:1:1) > FLZ−34DHB−H2O (1:1:1) > FLZ−24DHB−H2O (1:0.5:1) | hygroscopicity relative to FLZ ([2]; compared with commercialized FLZ form II): significantly reduces hygroscopicity; stability under high humidity ([2]; high humidity (90 ± 5%, 25 °C), PXRD at 0, 5 and 10 days): stable; stability under illumination ([2]; illumination (4500 ± 500 lx, 25 °C), PXRD at 0, 5 and 10 days): stable
9 | O.O=C(O)c1cc(O)cc(O)c1.OC(Cn1cncn1)(Cn1cncn1)c1ccc(F)cc1F [FLZ−35DHB−H2O (1:1:1)] | – | forming an anhydrous form | FLZ−35DHB−H2O (1:1:1) > FLZ−34DHB−H2O (1:1:1) > FLZ−24DHB−H2O (1:0.5:1) | FLZ−35DHB−H2O (1:1:1) > FLZ−34DHB−H2O (1:1:1) > FLZ−24DHB−H2O (1:0.5:1) | IDR compared with FLZ form II ([3]; ultrapure water 900 mL, paddle 100 rpm, disk 0.5 cm^2): higher IDR
